Key:
Type in all cases: functional, cell-based
[1] = molecular target: T1, Multidrug resistance-associated protein 1 (Homo sapiens, UniProt P33527); test: TP_TRANSPORTER: increase in Daunomycin intracellular accumulation (Daunomycin: 0.05 uM, NITC: 100 uM) in PANC-1 cells; conditions: panc-1, 100 µM
[2] = molecular target: T2, ATP-dependent translocase ABCB1 (Homo sapiens, UniProt P08183); test: TP_TRANSPORTER: increase in Daunomycin intracellular accumulation (Daunomycin: 0.05 uM, NITC: 100 uM) in MCF-7 ADR cells; conditions: nci/adr-res
T2 sequence (P08183 whole entry): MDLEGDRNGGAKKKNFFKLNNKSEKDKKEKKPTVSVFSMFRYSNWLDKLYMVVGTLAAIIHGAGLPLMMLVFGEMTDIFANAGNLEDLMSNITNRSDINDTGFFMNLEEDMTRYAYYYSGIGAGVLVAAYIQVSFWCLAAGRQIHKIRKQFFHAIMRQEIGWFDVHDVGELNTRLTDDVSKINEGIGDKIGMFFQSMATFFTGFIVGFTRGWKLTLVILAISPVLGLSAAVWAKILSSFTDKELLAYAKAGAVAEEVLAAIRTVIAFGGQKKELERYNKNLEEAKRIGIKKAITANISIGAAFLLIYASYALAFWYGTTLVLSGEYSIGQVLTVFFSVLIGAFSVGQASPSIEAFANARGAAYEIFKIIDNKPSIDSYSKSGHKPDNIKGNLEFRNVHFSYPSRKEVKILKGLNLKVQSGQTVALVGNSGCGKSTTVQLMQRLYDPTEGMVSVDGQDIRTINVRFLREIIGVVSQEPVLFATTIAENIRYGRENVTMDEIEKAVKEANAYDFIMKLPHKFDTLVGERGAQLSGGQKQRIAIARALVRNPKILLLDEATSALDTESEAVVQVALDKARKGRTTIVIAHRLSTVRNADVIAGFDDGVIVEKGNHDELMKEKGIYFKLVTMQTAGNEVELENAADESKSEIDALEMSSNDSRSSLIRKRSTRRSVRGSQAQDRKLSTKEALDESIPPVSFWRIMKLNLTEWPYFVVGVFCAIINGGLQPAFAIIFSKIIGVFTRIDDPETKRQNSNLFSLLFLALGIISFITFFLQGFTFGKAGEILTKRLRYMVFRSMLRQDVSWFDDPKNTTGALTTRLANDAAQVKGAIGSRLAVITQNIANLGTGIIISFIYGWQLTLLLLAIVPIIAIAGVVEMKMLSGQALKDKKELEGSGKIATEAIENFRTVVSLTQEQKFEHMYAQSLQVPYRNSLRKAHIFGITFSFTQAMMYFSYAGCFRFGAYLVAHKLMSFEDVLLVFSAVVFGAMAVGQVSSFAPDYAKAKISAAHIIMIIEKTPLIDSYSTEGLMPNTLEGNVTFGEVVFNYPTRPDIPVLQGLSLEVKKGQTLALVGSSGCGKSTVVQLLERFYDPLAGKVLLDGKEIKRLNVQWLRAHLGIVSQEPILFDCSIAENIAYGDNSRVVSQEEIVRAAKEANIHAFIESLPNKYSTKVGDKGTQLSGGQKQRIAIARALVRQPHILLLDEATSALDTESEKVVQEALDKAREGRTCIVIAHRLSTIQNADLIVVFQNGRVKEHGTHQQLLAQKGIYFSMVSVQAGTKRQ

[3] = molecular target: T2, ATP-dependent translocase ABCB1; test: TP_TRANSPORTER: increase in Daunomycin intracellular accumulation (Daunomycin: 0.05 uM, Benzylisothiocyanate: 100 uM) in MCF-7/ADR cells; conditions: nci/adr-res
[4] = molecular target: T1, Multidrug resistance-associated protein 1; test: TP_TRANSPORTER: increase in Daunomycin intracellular accumulation (Daunomycin: 0.05 uM, Phenylhexyl isothiocyanate: 100 uM) in PANC-1 cells; conditions: panc-1, 100 µM
[5] = molecular target: T1, Multidrug resistance-associated protein 1; test: TP_TRANSPORTER: increase in Vinblastine intracellular accumulation (Vinblastine: 0.05 uM, Phenylbutyl isothiocyanate: 100 uM) in PANC-1 cells; conditions: panc-1, 100 µM
[6] = molecular target: T2, ATP-dependent translocase ABCB1; test: TP_TRANSPORTER: increase in Vinblastine intracellular accumulation ([…], Phenylhexyl isothiocyanate: 100 uM) in MCF-7/ADR cells; conditions: nci/adr-res
[7] = molecular target: T1, Multidrug resistance-associated protein 1; test: TP_TRANSPORTER: increase in Vinblastine intracellular accumulation (Vinblastine: 0.05 uM, Phenylhexyl isothiocyanate: 100 uM) in PANC-1 cells; conditions: panc-1, 100 µM

T1 sequence (P33527 whole entry): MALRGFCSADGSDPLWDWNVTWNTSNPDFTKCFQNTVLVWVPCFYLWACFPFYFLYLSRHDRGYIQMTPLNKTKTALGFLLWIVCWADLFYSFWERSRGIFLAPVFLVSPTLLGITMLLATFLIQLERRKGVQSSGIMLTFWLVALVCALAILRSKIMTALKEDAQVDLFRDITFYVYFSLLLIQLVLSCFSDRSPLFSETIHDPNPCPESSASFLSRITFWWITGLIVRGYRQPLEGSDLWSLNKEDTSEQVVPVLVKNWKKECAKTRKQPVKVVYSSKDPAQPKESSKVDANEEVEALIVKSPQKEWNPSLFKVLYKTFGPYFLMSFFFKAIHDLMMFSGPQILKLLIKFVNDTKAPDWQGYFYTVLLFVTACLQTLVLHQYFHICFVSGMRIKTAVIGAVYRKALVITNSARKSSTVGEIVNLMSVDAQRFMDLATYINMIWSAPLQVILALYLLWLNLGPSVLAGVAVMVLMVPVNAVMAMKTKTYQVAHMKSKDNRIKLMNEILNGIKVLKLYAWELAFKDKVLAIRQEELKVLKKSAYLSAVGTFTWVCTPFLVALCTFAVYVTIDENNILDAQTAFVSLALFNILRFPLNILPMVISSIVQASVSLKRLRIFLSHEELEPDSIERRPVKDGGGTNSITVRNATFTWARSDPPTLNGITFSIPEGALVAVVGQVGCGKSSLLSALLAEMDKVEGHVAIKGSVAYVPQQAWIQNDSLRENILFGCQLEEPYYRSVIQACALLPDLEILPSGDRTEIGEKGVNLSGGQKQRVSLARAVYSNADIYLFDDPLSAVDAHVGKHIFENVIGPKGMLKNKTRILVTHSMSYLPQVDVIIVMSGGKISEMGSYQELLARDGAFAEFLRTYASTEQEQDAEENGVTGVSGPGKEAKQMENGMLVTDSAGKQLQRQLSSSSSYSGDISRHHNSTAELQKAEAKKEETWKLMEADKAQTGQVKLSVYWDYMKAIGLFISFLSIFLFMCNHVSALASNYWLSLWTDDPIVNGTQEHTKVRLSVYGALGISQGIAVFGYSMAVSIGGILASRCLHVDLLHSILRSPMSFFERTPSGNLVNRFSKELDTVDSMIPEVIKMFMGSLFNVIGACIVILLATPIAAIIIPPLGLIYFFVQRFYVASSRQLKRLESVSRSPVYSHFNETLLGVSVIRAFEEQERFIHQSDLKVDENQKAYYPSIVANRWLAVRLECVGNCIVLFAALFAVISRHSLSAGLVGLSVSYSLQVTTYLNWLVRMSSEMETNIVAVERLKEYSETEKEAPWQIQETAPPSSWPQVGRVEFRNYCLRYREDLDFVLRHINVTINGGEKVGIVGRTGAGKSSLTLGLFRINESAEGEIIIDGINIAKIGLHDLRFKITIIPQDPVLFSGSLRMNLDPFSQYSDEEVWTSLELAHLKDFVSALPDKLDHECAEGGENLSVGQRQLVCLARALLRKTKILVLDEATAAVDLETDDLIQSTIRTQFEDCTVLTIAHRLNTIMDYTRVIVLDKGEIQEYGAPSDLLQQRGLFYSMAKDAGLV

Question: With S=C=Nc1cccc2ccccc12 [1-NAPHTHYLISOTHIOCYANATE] as the compound, how does the Activity [1] read?
Answer: Its Activity is 3 fold.

Question: And the Activity [2]?
Answer: Its Activity is 4 fold.

Question: For S=C=NCc1ccccc1 [BENZYL ISOTHIOCYANATE], which Activity [3] is on record?
Answer: Its Activity is 2.5 fold.

Question: S=C=NCCc1ccccc1 [PHENETHYLISOTHIOCYANATE] was tested. Which Activity [4] did it give?
Answer: The Activity was 2 fold.

Question: How did the Activity [5] turn out when S=C=NCCCCc1ccccc1 [PHENYLBUTYL ISOTHIOCYANATE] was run?
Answer: The Activity was 2.5 fold.

Question: Which Activity [6] does the source give for S=C=NCCCCCCc1ccccc1 [PHENYLHEXYL ISOTHIOCYANATE] here?
Answer: Its Activity is 10 fold.

Question: What about the Activity [7] of the same compound?
Answer: Its Activity is 3 fold.

Source: ChEMBL document CHEMBL2074445, “Effect of organic isothiocyanates on the P-glycoprotein- and MRP1-mediated transport of daunomycin and vinblastine” (Pharm Res, 2002)
